Experimental data taken from publication PMC12298351, “Novel 3,19-(N-Phenyl-3-(4-fluorophenyl)-pyrazole) Acetal of Andrographolide Promotes Cell Cycle Arrest and Apoptosis in MDA-MB-231 Breast Cancer Cells” (Pharmaceuticals, 2025).

Tests used:
SK-MEL-2 = settings: SK-MEL-2, Melanoma
CAKI-1 = settings: CAKI-1, Renal; for CC50: read-out: 50% lethal concentration (LC50)
SF-268 = settings: SF-268, CNS; for CC50: read-out: 50% lethal concentration (LC50)
SW-620 = settings: SW-620, Colon; for CC50: read-out: 50% lethal concentration (LC50)
U251 = settings: U251, CNS
MDA-MB-231 = settings: for GI50: MDA-MB-231, Breast; for Total growth inhibition (TGI) / CC50: MDA-MB-231/ATCC, Breast; for CC50: read-out: 50% lethal concentration (LC50)
T-47D = settings: for GI50 / Total growth inhibition (TGI): Breast; for CC50: read-out: 50% lethal concentration (LC50), Breast
SF-295 = settings: SF-295, CNS; for CC50: read-out: 50% lethal concentration (LC50)
UACC-257 = settings: UACC-257, Melanoma
OVCAR-3 = settings: OVCAR-3, Ovarian; for CC50: read-out: 50% lethal concentration (LC50)
PC-3 = settings: PC-3, Prostate; for CC50: read-out: 50% lethal concentration (LC50)
RPMI-8226 = settings: RPMI-8226, Leukemia; for CC50: read-out: 50% lethal concentration (LC50)
SK-MEL-5 = settings: SK-MEL-5, Melanoma; for CC50: read-out: 50% lethal concentration (LC50)
SN12C = settings: for GI50 / Total growth inhibition (TGI): Renal; for CC50: read-out: 50% lethal concentration (LC50), Renal
COLO 205 = settings: COLO 205, Colon
NCI-H23 = settings: for Total growth inhibition (TGI) / CC50: NCI-H23, Non-Small Cell Lung; for GI50: NCI-H23, Non-Small-Cell Lung; for CC50: read-out: 50% lethal concentration (LC50)
BT-549 = assay type: cell-based; settings: BT-549, Breast
SK-OV-3 = settings: SK-OV-3, Ovarian; for CC50: read-out: 50% lethal concentration (LC50)
HT29 = settings: HT29, Colon; for CC50: read-out: 50% lethal concentration (LC50)
LOX IMVI = settings: for GI50 / Total growth inhibition (TGI): Melanoma; for CC50: read-out: 50% lethal concentration (LC50), Melanoma
IGROV1 = settings: IGROV1, Ovarian; for CC50: read-out: 50% lethal concentration (LC50)
MDA-MB-468 = settings: MDA-MB-468, Breast; for CC50: read-out: 50% lethal concentration (LC50)
EKVX = settings: for Total growth inhibition (TGI): Non-Small Cell Lung; for GI50: Non-Small-Cell Lung; for CC50: read-out: 50% lethal concentration (LC50), Non-Small Cell Lung
SNB-19 = assay type: cell-based; settings: SNB-19, CNS
M14 = assay type: cell-based; settings: M14, Melanoma
KM12 = settings: KM12, Colon
K-562 = settings: K-562, Leukemia; for CC50: read-out: 50% lethal concentration (LC50)
MOLT-4 = settings: MOLT-4, Leukemia; for CC50: read-out: 50% lethal concentration (LC50)
HCC-2998 = settings: HCC-2998, Colon
OVCAR-5 = settings: OVCAR-5, Ovarian; for CC50: read-out: 50% lethal concentration (LC50)
TK-10 = assay type: cell-based; settings: TK-10, Renal
OVCAR-4 = assay type: cell-based; settings: OVCAR-4, Ovarian; for CC50: read-out: 50% lethal concentration (LC50)
[1] = read-out: 50% lethal concentration (LC50)

SMILES: C=C1CCC2C3(C)COC(c4cn(-c5ccccc5)nc4-c4ccc(OC)cc4)OC3CCC2(C)C1CC=C1C(=O)OCC1O (centres unmarked) [1j]
- GI50 (SK-MEL-2): 1.57 µM
- Total growth inhibition (TGI) (SK-MEL-2): 3.08 µM
- GI50 (CAKI-1): 1.26 µM
- Total growth inhibition (TGI) (CAKI-1): 2.64 µM
- CC50 (CAKI-1): 5.54 µM
- GI50 (SF-268): 1.67 µM
- Total growth inhibition (TGI) (SF-268): 3.6 µM
- CC50 (SF-268): 7.77 µM
- GI50 (SW-620): 1.69 µM
- Total growth inhibition (TGI) (SW-620): 3.8 µM
- CC50 (SW-620): 8.55 µM
- GI50 (U251): 1.66 µM
- Total growth inhibition (TGI) (U251): 3.1 µM
- GI50 (MDA-MB-231): 1.47 µM
- Total growth inhibition (TGI) (MDA-MB-231): 2.98 µM
- CC50 (MDA-MB-231): 60.1 µM
- GI50 (T-47D): 1.8 µM
- Total growth inhibition (TGI) (T-47D): 5.02 µM
- CC50 (T-47D): > 100 µM
- GI50 (SF-295): 1.43 µM
- Total growth inhibition (TGI) (SF-295): 2.78 µM
- CC50 (SF-295): 5.39 µM
- GI50 (UACC-257): 1.64 µM
- Total growth inhibition (TGI) (UACC-257): 3.28 µM
- GI50 (OVCAR-3): 1.5 µM
- Total growth inhibition (TGI) (OVCAR-3): 2.96 µM
- CC50 (OVCAR-3): 5.84 µM
- GI50 (PC-3): 2.18 µM
- CC50 (PC-3): > 100 µM
- GI50 (RPMI-8226): 0.92 µM
- Total growth inhibition (TGI) (RPMI-8226): > 100 µM
- CC50 (RPMI-8226): > 100 µM
- GI50 (SK-MEL-5): 1.54 µM
- Total growth inhibition (TGI) (SK-MEL-5): 2.89 µM
- CC50 (SK-MEL-5): 5.41 µM
- GI50 (SN12C): 1.98 µM
- Total growth inhibition (TGI) (SN12C): 5.94 µM
- CC50 (SN12C): 65.1 µM
- GI50 (COLO 205): 1.95 µM
- Total growth inhibition (TGI) (COLO 205): 4.24 µM
- Total growth inhibition (TGI) (NCI-H23): 3.74 µM
- GI50 (NCI-H23): 1.71 µM
- CC50 (NCI-H23): 8.2 µM
- GI50 (BT-549): 1.65 µM
- Total growth inhibition (TGI) (BT-549): 3.23 µM
- GI50 (SK-OV-3): 3.44 µM
- Total growth inhibition (TGI) (SK-OV-3): 23.9 µM
- CC50 (SK-OV-3): > 100 µM
- GI50 (HT29): 1.7 µM
- Total growth inhibition (TGI) (HT29): 3.38 µM
- CC50 (HT29): 6.73 µM
- GI50 (LOX IMVI): 1.57 µM
- Total growth inhibition (TGI) (LOX IMVI): 2.93 µM
- CC50 (LOX IMVI): 5.47 µM
- GI50 (IGROV1): 1.37 µM
- Total growth inhibition (TGI) (IGROV1): 2.99 µM
- CC50 (IGROV1): 6.52 µM
- GI50 (MDA-MB-468): 1.71 µM
- Total growth inhibition (TGI) (MDA-MB-468): 3.25 µM
- CC50 (MDA-MB-468): 6.16 µM
- Total growth inhibition (TGI) (EKVX): 4.49 µM
- GI50 (EKVX): 1.96 µM
- CC50 (EKVX): > 100 µM
- GI50 (SNB-19): 2.46 µM
- Total growth inhibition (TGI) (SNB-19): 7.42 µM
- CC50 (SNB-19; [1]): 34.6 µM
- GI50 (M14): 1.72 µM
- Total growth inhibition (TGI) (M14): 3.54 µM
- GI50 (KM12): 1.66 µM
- Total growth inhibition (TGI) (KM12): 3.31 µM
- GI50 (K-562): 1.9 µM
- CC50 (K-562): > 100 µM
- GI50 (MOLT-4): 1.71 µM
- Total growth inhibition (TGI) (MOLT-4): 7.57 µM
- CC50 (MOLT-4): > 100 µM
- GI50 (HCC-2998): 1.7 µM
- Total growth inhibition (TGI) (HCC-2998): 3.19 µM
- GI50 (OVCAR-5): 1.86 µM
- Total growth inhibition (TGI) (OVCAR-5): 4.21 µM
- CC50 (OVCAR-5): 9.52 µM
- GI50 (TK-10): 1.95 µM
- Total growth inhibition (TGI) (TK-10): 4.13 µM
- CC50 (TK-10; [1]): 8.77 µM
- GI50 (OVCAR-4): 1.72 µM
- Total growth inhibition (TGI) (OVCAR-4): 4.23 µM
- CC50 (OVCAR-4): > 100 µM

SMILES: C=C1CCC2C3(C)COC(c4cn(-c5ccccc5)nc4-c4ccc(Cl)cc4)OC3CCC2(C)C1CC=C1C(=O)OCC1O (centres unmarked) [1g]
- GI50 (SK-MEL-2): 1.77 µM
- Total growth inhibition (TGI) (SK-MEL-2): 3.25 µM
- GI50 (CAKI-1): 1.63 µM
- Total growth inhibition (TGI) (CAKI-1): 3.28 µM
- CC50 (CAKI-1): 6.59 µM
- GI50 (SF-268): 2.39 µM
- Total growth inhibition (TGI) (SF-268): 6.32 µM
- CC50 (SF-268): > 100 µM
- Total growth inhibition (TGI) (SW-620): > 100 µM
- CC50 (SW-620): > 100 µM
- GI50 (U251): 2.39 µM
- Total growth inhibition (TGI) (U251): 3.19 µM
- GI50 (MDA-MB-231): 1.68 µM
- Total growth inhibition (TGI) (MDA-MB-231): 4.6 µM
- CC50 (MDA-MB-231): 6.25 µM
- GI50 (T-47D): 1.31 µM
- Total growth inhibition (TGI) (T-47D): 3.6 µM
- CC50 (T-47D): > 100 µM
- GI50 (SF-295): 1.5 µM
- Total growth inhibition (TGI) (SF-295): 2.88 µM
- CC50 (SF-295): 5.51 µM
- GI50 (UACC-257): 1.8 µM
- Total growth inhibition (TGI) (UACC-257): 3.63 µM
- GI50 (OVCAR-3): 1.78 µM
- Total growth inhibition (TGI) (OVCAR-3): 3.72 µM
- CC50 (OVCAR-3): 7.77 µM
- GI50 (PC-3): 2.07 µM
- Total growth inhibition (TGI) (PC-3): > 100 µM
- CC50 (PC-3): > 100 µM
- GI50 (RPMI-8226): 2.46 µM
- Total growth inhibition (TGI) (RPMI-8226): > 100 µM
- CC50 (RPMI-8226): > 100 µM
- GI50 (SK-MEL-5): 1.7 µM
- Total growth inhibition (TGI) (SK-MEL-5): 3.11 µM
- CC50 (SK-MEL-5): 5.69 µM
- GI50 (SN12C): 1.67 µM
- Total growth inhibition (TGI) (SN12C): 3.57 µM
- CC50 (SN12C): 7.61 µM
- GI50 (COLO 205): 2.3 µM
- Total growth inhibition (TGI) (COLO 205): 5.58 µM
- Total growth inhibition (TGI) (NCI-H23): 3.59 µM
- GI50 (NCI-H23): 1.73 µM
- CC50 (NCI-H23): 7.45 µM
- GI50 (BT-549): 1.49 µM
- Total growth inhibition (TGI) (BT-549): 3.37 µM
- GI50 (SK-OV-3): 3.04 µM
- Total growth inhibition (TGI) (SK-OV-3): 1.67 µM
- CC50 (SK-OV-3): > 100 µM
- GI50 (HT29): 1.69 µM
- Total growth inhibition (TGI) (HT29): 4.64 µM
- CC50 (HT29): > 100 µM
- GI50 (LOX IMVI): 1.58 µM
- Total growth inhibition (TGI) (LOX IMVI): 2.94 µM
- CC50 (LOX IMVI): 5.48 µM
- GI50 (IGROV1): 4.29 µM
- Total growth inhibition (TGI) (IGROV1): 46.1 µM
- CC50 (IGROV1): > 100 µM
- GI50 (MDA-MB-468): 2 µM
- Total growth inhibition (TGI) (MDA-MB-468): 4.49 µM
- CC50 (MDA-MB-468): 6.36 µM
- Total growth inhibition (TGI) (EKVX): 5.28 µM
- GI50 (EKVX): 2.24 µM
- CC50 (EKVX): > 100 µM
- GI50 (SNB-19): 1.4 µM
- GI50 (M14): 1.84 µM
- Total growth inhibition (TGI) (M14): 3.69 µM
- GI50 (KM12): 2.29 µM
- Total growth inhibition (TGI) (KM12): 4.92 µM
- GI50 (K-562): 3.67 µM
- Total growth inhibition (TGI) (K-562): > 100 µM
- CC50 (K-562): > 100 µM
- GI50 (MOLT-4): 0.88 µM
- Total growth inhibition (TGI) (MOLT-4): > 100 µM
- CC50 (MOLT-4): > 100 µM
- GI50 (HCC-2998): 1.88 µM
- Total growth inhibition (TGI) (HCC-2998): 3.39 µM
- GI50 (OVCAR-5): 1.98 µM
- Total growth inhibition (TGI) (OVCAR-5): 5.38 µM
- CC50 (OVCAR-5): > 100 µM
- GI50 (TK-10): 1.33 µM
- Total growth inhibition (TGI) (TK-10): 2.74 µM
- GI50 (OVCAR-4): 2.03 µM
- Total growth inhibition (TGI) (OVCAR-4): 5.15 µM
- CC50 (OVCAR-4): > 100 µM
